Reference: ChEMBL document CHEMBL5113415, “Synthesis of 10,10'-bis(trifluoromethyl) marinopyrrole A derivatives and evaluation of their antiviral activities in vitro” (Eur J Med Chem, 2022)

Legend:
[1] = Selectivity index, ratio of CC50 for […] to IC50 for YFV-17D infected in […]; type: toxicity, cell-based; conditions: read-out: Ratio CC50/IC50
[2] = Selectivity index, ratio of CC50 for human RD cells to IC50 for EV71 infected in human RD cells; type: toxicity, cell-based; conditions: read-out: Ratio CC50/IC50
Dengue virus = assay: Antiviral activity against DENV-NGC-1 infected in […] incubated for 7 days by CellTiter 96 luminescent cell viability assay; type: functional, organism-based; conditions: NGC-1, BHK, 168 h
[3] = Cytotoxicity against […] infected with DENV-NGC-1 incubated for 7 days by CellTiter 96 luminescent cell viability assay; type: toxicity, cell-based; conditions: time 7 day
Yellow fever virus = assay: Antiviral activity against YFV-17D infected in […] incubated for 7 days by CellTiter 96 luminescent cell viability assay; type: functional, organism-based; conditions: 168 h
[4] = Cytotoxicity against human RD cells infected with EV71 incubated for 3 days by CellTiter 96 luminescent cell viability assay; type: toxicity, cell-based; conditions: time 3 day
[5] = Selectivity index, ratio of CC50 for […] to IC50 for JEV-SA14 infected in […]; type: toxicity, cell-based; conditions: read-out: Ratio CC50/IC50
Enterovirus A71 = assay: Antiviral activity against EV71 infected in human RD cells incubated for 3 days by CellTiter 96 luminescent cell viability assay; type: functional, organism-based; conditions: Enterovirus A, 71, RD, 72 h
[6] = Selectivity index, ratio of CC50 for […] to IC50 for DENV-NGC infected in […]; type: toxicity, cell-based; conditions: read-out: Ratio CC50/IC50
[7] = test system: Japanese encephalitis virus; assay: Antiviral activity against JEV-SA14 infected in […] incubated for 7 days by CellTiter 96 luminescent cell viability assay; type: functional, organism-based; conditions: 168 h
Zika virus = assay: Antiviral activity against ZIKV-SMGC-1 infected in […] incubated for 7 days by CellTiter 96 luminescent cell viability assay; type: functional, organism-based; conditions: SMGC-1, BHK, 168 h
[8] = Cytotoxicity against […] infected with YFV-17D incubated for 7 days by CellTiter 96 luminescent cell viability assay; type: toxicity, cell-based; conditions: time 7 day
[9] = Cytotoxicity against […] infected with ZIKV-SMGC-1 incubated for 7 days by CellTiter 96 luminescent cell viability assay; type: toxicity, cell-based; conditions: time 7 day
[10] = Cytotoxicity against […] infected with JEV-SA14 incubated for 7 days by CellTiter 96 luminescent cell viability assay; type: toxicity, cell-based; conditions: time 7 day
[11] = Selectivity index, ratio of CC50 for […] to IC50 for ZIKV-SMGC-1 infected in […]; type: toxicity, cell-based; conditions: read-out: Ratio CC50/IC50
Coxsackievirus A16 = assay: Antiviral activity against CA16 infected in human RD cells incubated for 3 days by CellTiter 96 luminescent cell viability assay; type: functional, organism-based; conditions: Enterovirus A, 72 h
[12] = Cytotoxicity against human RD cells infected with CA16 incubated for 3 days by CellTiter 96 luminescent cell viability assay; type: toxicity, cell-based; conditions: time 3 day
[13] = Selectivity index, ratio of CC50 for human RD cells to IC50 for CA16 infected in human RD cells; type: toxicity, cell-based; conditions: read-out: Ratio CC50/IC50
Coxsackievirus = assay: Antiviral activity against CA6 infected in human RD cells incubated for 3 days by CellTiter 96 luminescent cell viability assay; type: functional, organism-based; conditions: A6, RD, 72 h
[14] = Cytotoxicity against human RD cells infected with CA6 incubated for 3 days by CellTiter 96 luminescent cell viability assay; type: toxicity, cell-based; conditions: time 3 day
[15] = Selectivity index, ratio of CC50 for human RD cells to IC50 for CA6 infected in human RD cells; type: toxicity, cell-based; conditions: read-out: Ratio CC50/IC50

Row | SMILES | selectivity ratio [1] | IC50 (Dengue virus) | CC50 at 168 h [3] | IC50 (Yellow fever virus) | selectivity ratio [5] | selectivity ratio [6] | IC50 [7] | IC50 (Zika virus) | CC50 at 168 h [8] | CC50 at 168 h [9] | CC50 at 168 h [10] | selectivity ratio [11] | IC50 (Coxsackievirus A16) | CC50 at 72 h [12] | selectivity ratio [13] | other results
1 | CN(C)CCn1nnnc1Sc1c(Cl)cc(C(=O)c2ccc(C(F)(F)F)cc2O)n1-c1c(C(=O)c2ccc(C(F)(F)F)cc2O)[nH]c(Cl)c1Cl | 2.1 | 1870 nM | 2820 nM | 1970 nM | 1.96 | 1.51 | 2110 nM | 1690 nM | 4140 nM | 2820 nM | 4140 nM | 1.67 | – | – | – | selectivity ratio [2]: 1.28; CC50 at 72 h [4]: 3170 nM; IC50 (Enterovirus A71): 2470 nM
2 | O=C(c1ccc(C(F)(F)F)cc1O)c1[nH]c(Cl)c(Cl)c1-n1c(C(=O)c2ccc(C(F)(F)F)cc2O)cc(Cl)c1Sc1nc2ccccc2[nH]1 | 1.33 | 21600 nM | 25300 nM | 23200 nM | – | 1.17 | – | 14500 nM | 30800 nM | 110 nM | – | 1.75 | 9130 nM | 45600 nM | 5 | –
3 | O=C(c1ccc(C(F)(F)F)cc1O)c1[nH]c(Cl)c(Cl)c1-n1c(C(=O)c2ccc(C(F)(F)F)cc2O)cc(Cl)c1Sc1cccc[n+]1[O-] | 2.58 | 3680 nM | 8060 nM | 3130 nM | – | 2.19 | – | – | 8060 nM | – | – | – | 1070 nM | 8510 nM | 7.95 | –
4 | O=C(c1ccc(C(F)(F)F)cc1O)c1[nH]c(Cl)c(Cl)c1-n1c(C(=O)c2ccc(C(F)(F)F)cc2O)cc(Cl)c1Sc1cnccn1 | 1.45 | 290 nM | 1460 nM | 840 nM | 2.02 | 5.03 | 600 nM | 250 nM | 1220 nM | 1460 nM | 1210 nM | 5.85 | 180 nM | 11000 nM | 60.9 | –
5 | Cc1nnc(Sc2c(Cl)cc(C(=O)c3ccc(C(F)(F)F)cc3O)n2-c2c(C(=O)c3ccc(C(F)(F)F)cc3O)[nH]c(Cl)c2Cl)s1 | 2.02 | 760 nM | 440 nM | 850 nM | 1.85 | 0.58 | 930 nM | 780 nM | 1720 nM | 440 nM | 1720 nM | 0.57 | 280 nM | 2640 nM | 9.43 | –
6 | O=C(c1ccc(C(F)(F)F)cc1O)c1[nH]c(Cl)c(Cl)c1-n1c(C(=O)c2ccc(C(F)(F)F)cc2O)cc(Cl)c1SCCCO | 7.1 | 230 nM | 1420 nM | 200 nM | 6.17 | 6.17 | 230 nM | 100 nM | 1420 nM | – | 1420 nM | 14.2 | – | – | – | IC50 (Coxsackievirus): 260 nM; CC50 at 72 h [14]: 1040 nM; selectivity ratio [15]: 4
7 | O=C(c1ccc(C(F)(F)F)cc1O)c1[nH]c(Cl)c(Cl)c1-n1c(C(=O)c2ccc(C(F)(F)F)cc2O)cc(Cl)c1Sc1nc2cccnc2[nH]1 | 0.98 | 22800 nM | 17100 nM | 19700 nM | 0.79 | 0.75 | 24400 nM | 31400 nM | 19300 nM | 1800 nM | 19200 nM | 0.54 | 5900 nM | 19900 nM | 3.37 | –
8 | O=C(c1ccc(C(F)(F)F)cc1O)c1[nH]c(Cl)c(Cl)c1-n1c(C(=O)c2ccc(C(F)(F)F)cc2O)cc(Cl)c1Cl | – | > 300 nM | – | > 200000 nM | – | – | > 200000 nM | > 300 nM | – | – | – | – | 10 nM | 250 nM | 24.6 | selectivity ratio [2]: 1.96; CC50 at 72 h [4]: 120 nM; IC50 (Enterovirus A71): 60 nM
9 | O=C(c1ccc(C(F)(F)F)cc1O)c1[nH]c(Cl)c(Cl)c1-n1c(C(=O)c2ccc(C(F)(F)F)cc2O)cc(Cl)c1Sc1ccccn1 | 4.6 | – | – | 50 nM | 1.1 | – | 210 nM | – | 230 nM | – | 230 nM | – | 10 nM | 230 nM | 22.8 | IC50 (Coxsackievirus): 190 nM; CC50 at 72 h [14]: 230 nM; selectivity ratio [15]: 1.2
